Experiments:
[1] = molecular target: T1, HEV-PLpro (HEV papain-like cysteine protease) (Hepatitis E virus (strain Pakistan), UniProt P33424); experiment: fluorogenic protease assay; type: biochemical
T1 sequence (P33424 432-592): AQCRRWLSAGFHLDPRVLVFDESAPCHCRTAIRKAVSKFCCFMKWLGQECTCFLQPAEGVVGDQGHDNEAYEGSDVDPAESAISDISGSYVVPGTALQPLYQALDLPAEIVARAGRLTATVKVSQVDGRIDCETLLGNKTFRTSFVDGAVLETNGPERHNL

[2] = molecular target: T1, HEV-PLpro (HEV papain-like cysteine protease); experiment: fluorogenic protease assay, secondary plot of Km' vs [I]; type: biochemical

For NC(=O)c1ncn([C@@H]2O[C@H](CO)[C@@H](O)[C@H]2O)n1 [RBV, ribavirin], the IC50 [1] was 78.3 µM and the Ki [2] was 47.6 µM.
